Laboratory results from ChEMBL document CHEMBL4622974, “Leveraging an Open Science Drug Discovery Model to Develop CNS-Penetrant ALK2 Inhibitors for the Treatment of Diffuse Intrinsic Pontine Glioma” (J Med Chem, 2020).

Legend:
[1] = Oral bioavailability in BALB/c mouse at 5 mg/kg by LC-MS/MS analysis; format: ADME, organism-based; settings: in vivo
[2] = Ratio of drug level in brain to plasma in NOD/SCID mouse at 25 mg/kg, po measured at 2 hr post dose on day 14 by LC-MS/MS analysis; format: ADME, organism-based; settings: read-out: BPR
[3] = Half life in BALB/c mouse at 5 mg/kg, po by LC-MS/MS analysis; format: ADME, organism-based; settings: in vivo
[4] = Drug level in NOD/SCID mouse brain at 25 mg/kg, po measured at 2 hr post dose on day 14 by LC-MS/MS analysis; format: ADME, organism-based; settings: read-out: Drug uptake
[5] = molecular target: T1, Activin receptor type-1B (Homo sapiens, UniProt P36896); experiment: Inhibition of human ALK4 using casein as substrate in presence of [gamma-33P]-ATP by radiometric hotspot assay; format: ADME
T1 sequence (P36896 whole entry): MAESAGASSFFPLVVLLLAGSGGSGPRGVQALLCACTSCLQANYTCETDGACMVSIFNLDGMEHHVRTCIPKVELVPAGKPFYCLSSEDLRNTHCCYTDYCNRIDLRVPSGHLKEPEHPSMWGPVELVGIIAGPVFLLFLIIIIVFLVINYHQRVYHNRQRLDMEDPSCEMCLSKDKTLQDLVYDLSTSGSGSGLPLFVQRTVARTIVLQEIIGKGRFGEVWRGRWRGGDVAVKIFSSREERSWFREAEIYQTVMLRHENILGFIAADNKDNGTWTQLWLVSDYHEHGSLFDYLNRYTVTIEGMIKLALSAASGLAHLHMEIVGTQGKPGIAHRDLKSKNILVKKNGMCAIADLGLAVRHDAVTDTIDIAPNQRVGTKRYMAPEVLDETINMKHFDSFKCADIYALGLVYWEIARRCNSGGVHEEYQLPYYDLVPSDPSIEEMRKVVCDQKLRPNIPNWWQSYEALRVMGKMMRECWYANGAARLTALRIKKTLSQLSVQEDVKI

[6] = Selectivity ratio of IC50 for human ALK4 to IC50 for human ALK2; format: ADME
[7] = Drug uptake in NOD/SCID mouse at 25 mg/kg, po measured after 0.5 to 6 hrs; format: ADME, organism-based; settings: in vivo
[8] = Volume of distribution at steady state in CB17 SCID mouse at 2 mg/kg, iv after 0.25 to 24 hrs by LC/MS/MS method; format: ADME, organism-based; settings: in vivo, read-out: Vdss
[9] = Toxicity in CB17 SCID mouse assessed as induction of adverse effect at 10 mg/kg, po; format: organism-based; settings: in vivo
[10] = Half life in CD1 mouse liver microsomes at 1 uM incubated for 60 mins by LC/MS analysis; format: ADME, Microsome
[11] = Half life in CB17 SCID mouse at 10 mg/kg, po after 0.25 to 24 hrs by LC/MS/MS method; format: ADME, organism-based; settings: in vivo
[12] = Oral bioavailability in CB17 SCID mouse at 10 mg/kg after 0.25 to 24 hrs by LC/MS/MS method; format: ADME, organism-based; settings: in vivo
[13] = Stability in CD1 mouse liver microsomes assessed as compound remaining at 1 uM incubated for 60 mins by LC/MS analysis; format: ADME, Microsome; settings: read-out: Stability
[14] = Toxicity in CB17 SCID mouse assessed as induction of adverse effect at 2 mg/kg, iv; format: organism-based; settings: in vivo
[15] = Stability in human liver microsomes assessed as compound remaining at 1 uM incubated for 60 mins by LC/MS analysis; format: ADME, Microsome; settings: read-out: Stability
[16] = molecular target: T2, TGF-beta receptor type-1 (Homo sapiens, UniProt P36897); experiment: Inhibition of recombinant human ALK5 expressed in HEK293 cells transfected with CAGA-luciferase and Renilla luciferase reporter after 24 hrs by dual luciferase reporter assay; format: cell-based
T2 sequence (P36897 whole entry): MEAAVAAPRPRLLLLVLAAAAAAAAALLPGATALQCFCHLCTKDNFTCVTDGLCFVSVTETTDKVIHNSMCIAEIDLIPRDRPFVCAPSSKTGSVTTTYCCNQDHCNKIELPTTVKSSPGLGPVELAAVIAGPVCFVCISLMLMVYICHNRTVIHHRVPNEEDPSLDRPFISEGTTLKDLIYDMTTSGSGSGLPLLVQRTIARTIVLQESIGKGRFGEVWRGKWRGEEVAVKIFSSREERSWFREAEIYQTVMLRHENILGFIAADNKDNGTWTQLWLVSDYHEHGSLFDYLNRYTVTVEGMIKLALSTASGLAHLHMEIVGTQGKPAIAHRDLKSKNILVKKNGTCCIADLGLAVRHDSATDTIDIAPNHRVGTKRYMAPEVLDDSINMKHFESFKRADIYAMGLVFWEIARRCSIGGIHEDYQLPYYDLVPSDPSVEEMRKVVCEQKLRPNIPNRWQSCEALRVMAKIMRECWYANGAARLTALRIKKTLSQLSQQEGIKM

[17] = Clearance in CB17 SCID mouse at 2 mg/kg, iv after 0.25 to 24 hrs by LC/MS/MS method; format: ADME, organism-based; settings: in vivo
[18] = molecular target: T2, TGF-beta receptor type-1; experiment: Inhibition of human ALK5 using casein as substrate in presence of [gamma-33P]-ATP by radiometric hotspot assay; format: ADME
[19] = Apparent permeability across basolateral to apical side in human Caco2 cells at 5 uM after 120 mins by LC-MS/MS analysis; format: ADME, cell-based; settings: Caco-2
[20] = Efflux ratio of apparent permeability across basolateral to apical over apical to basolateral side in human Caco2 cells at 5 uM incubated for 2 hrs by LC/MS/MS analysis; settings: Caco-2
[21] = molecular target: T3, Activin receptor type-1 (Homo sapiens, UniProt Q04771); experiment: Inhibition of human ALK2 using casein as substrate in presence of [gamma-33P]-ATP by radiometric hotspot assay
T3 sequence (Q04771 whole entry): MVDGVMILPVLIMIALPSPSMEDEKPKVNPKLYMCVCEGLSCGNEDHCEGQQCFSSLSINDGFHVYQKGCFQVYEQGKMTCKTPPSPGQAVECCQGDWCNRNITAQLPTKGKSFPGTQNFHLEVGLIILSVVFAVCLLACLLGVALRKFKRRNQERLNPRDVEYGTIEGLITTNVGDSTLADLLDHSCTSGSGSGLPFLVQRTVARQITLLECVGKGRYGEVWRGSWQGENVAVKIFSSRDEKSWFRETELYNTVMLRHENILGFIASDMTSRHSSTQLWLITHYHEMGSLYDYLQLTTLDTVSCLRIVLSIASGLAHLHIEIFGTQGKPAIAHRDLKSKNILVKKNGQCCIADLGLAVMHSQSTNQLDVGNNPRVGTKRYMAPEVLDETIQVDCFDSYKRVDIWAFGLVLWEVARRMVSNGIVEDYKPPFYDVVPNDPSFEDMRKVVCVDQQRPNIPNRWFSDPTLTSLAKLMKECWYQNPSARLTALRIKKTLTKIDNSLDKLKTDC

[22] = Apparent permeability across apical to basolateral side in human Caco2 cells at 5 uM after 120 mins by LC-MS/MS analysis; settings: Caco-2
[23] = molecular target: T3, Activin receptor type-1; experiment: Competitive displacement of PBI-6908 from nanoluciferase-fused ALK2 (unknown origin) expressed in HEK293 cells incubated for 2 hrs by NanoBRET NanoGlo substrate based NanoBRET assay; format: cell-based
[24] = Ratio of drug level in brain to plasma in CB17 SCID mouse at 10 mg/kg, po measured at 4 h; format: ADME, organism-based; settings: brain and plasma, read-out: BPR
[25] = AUCinfinity in CB17 SCID mouse at 10 mg/kg, po after 0.25 to 24 hrs by LC/MS/MS method; format: ADME, organism-based; parameters: dose 10 mg/kg, time infinity, route oral; settings: in vivo
[26] = molecular target: Voltage-gated inwardly rectifying potassium channel KCNH2 (Homo sapiens, UniProt Q12809); experiment: Inhibition of human ERG expressed in HEK293 cells after 5 mins by IonWorks barracuda patch clamp method; format: cell-based
[27] = Half life in human liver microsomes at 1 uM incubated for 60 mins by LC/MS analysis; format: ADME, Microsome
[28] = Cmax in CB17 SCID mouse at 10 mg/kg, po after 0.25 to 24 hrs by LC/MS/MS method; format: ADME, organism-based; parameters: dose 10 mg/kg, route oral; settings: in vivo
[29] = Plasma concentration in NOD/SCID mouse at 25 mg/kg, po measured after 0.5 to 6 hrs; format: ADME, organism-based; settings: in vivo

Sequence of Voltage-gated inwardly rectifying potassium channel KCNH2 (Q12809 whole entry): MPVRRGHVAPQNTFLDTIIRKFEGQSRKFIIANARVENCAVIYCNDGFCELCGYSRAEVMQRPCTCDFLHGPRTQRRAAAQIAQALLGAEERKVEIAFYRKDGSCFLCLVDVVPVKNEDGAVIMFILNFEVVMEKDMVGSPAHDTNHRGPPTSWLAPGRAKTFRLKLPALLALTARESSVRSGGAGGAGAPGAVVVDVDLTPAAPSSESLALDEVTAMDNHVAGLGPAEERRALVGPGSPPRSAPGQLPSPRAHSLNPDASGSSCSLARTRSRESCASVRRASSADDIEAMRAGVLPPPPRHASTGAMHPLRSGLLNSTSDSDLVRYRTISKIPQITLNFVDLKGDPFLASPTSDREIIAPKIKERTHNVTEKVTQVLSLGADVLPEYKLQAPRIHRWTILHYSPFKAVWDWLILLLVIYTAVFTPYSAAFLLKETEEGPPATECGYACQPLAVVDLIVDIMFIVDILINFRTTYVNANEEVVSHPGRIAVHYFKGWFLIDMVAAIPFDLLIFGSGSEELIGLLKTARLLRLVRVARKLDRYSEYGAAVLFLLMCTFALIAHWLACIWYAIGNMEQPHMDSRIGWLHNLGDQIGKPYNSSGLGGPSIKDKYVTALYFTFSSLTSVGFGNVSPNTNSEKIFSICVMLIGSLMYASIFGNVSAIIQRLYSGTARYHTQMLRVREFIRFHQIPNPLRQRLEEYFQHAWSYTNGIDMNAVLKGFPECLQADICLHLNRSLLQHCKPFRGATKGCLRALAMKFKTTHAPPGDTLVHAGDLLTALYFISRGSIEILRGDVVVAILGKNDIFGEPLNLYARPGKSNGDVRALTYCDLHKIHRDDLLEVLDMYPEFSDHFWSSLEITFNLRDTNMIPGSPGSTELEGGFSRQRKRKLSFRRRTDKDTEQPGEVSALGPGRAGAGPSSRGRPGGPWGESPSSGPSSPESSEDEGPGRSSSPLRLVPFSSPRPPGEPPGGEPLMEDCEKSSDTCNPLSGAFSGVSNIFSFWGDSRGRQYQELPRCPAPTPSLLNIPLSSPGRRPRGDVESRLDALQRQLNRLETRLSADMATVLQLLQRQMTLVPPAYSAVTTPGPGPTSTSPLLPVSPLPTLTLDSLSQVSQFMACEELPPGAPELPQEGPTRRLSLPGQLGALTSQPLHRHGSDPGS

IC50 [5] [nM] | Vd [8] [L/kg] | half-life at 1 µM [10] [h] | half-life [11] [h] | bioavailability [12] [%] | remaining at 1 h, 1 µM [13] [%] | remaining at 1 h, 1 µM [15] [%] | IC50 [16] [nM] | clearance [17] [mL/min/kg] | IC50 [18] [nM] | Papp B→A at 2 h, 5 µM [19] [×10⁻⁶ cm/s] | efflux ratio at 2 h, 5 µM [20] | IC50 [21] [nM] | Papp A→B at 2 h, 5 µM [22] [×10⁻⁶ cm/s] | IC50 [23] [nM] | AUC(0-inf) [25] [µM·h] | Compound | Ratio IC50 [6] | Activity [9] | Activity [14] | IC50 [26] [nM] | further results
 |  |  |  |  |  |  |  |  |  |  |  |  |  |  |  | COc1cc(-c2cc(-c3ccc(N4CCNCC4)cc3)cnc2C)cc(OC)c1OC |  |  |  |  | bioavailability [1]: 75%; Kp at 2 h [2]: 0.8; half-life [3]: 3.91 h; concentration at 2 h [4]: 10.9 µM
462 |  |  |  |  |  |  |  |  |  |  |  |  |  |  |  | COc1cc(-c2cncc(-c3ccc(N4CCNCC4)cc3)c2)cc(OC)c1OC | 36 |  |  |  | 
 |  |  |  |  |  |  |  |  |  |  |  |  |  |  |  | COc1cc(-c2cncc(-c3ccc(N4CCNCC4)cc3)c2C)cc(OC)c1OC.CS(=O)(=O)O |  |  |  |  | Drug uptake [7]: Active
962 |  |  |  |  |  |  | 9450 |  | 1330 |  |  | 16 |  | 57 |  | COc1cc(-c2cncc(-c3ccc(N4CCNCC4)cc3)c2Cl)cc(OC)c1OC | 60 |  |  | 2700 | 
257 |  |  |  |  |  |  | 679 |  | 731 |  |  | 3 |  | 15 |  | COc1cc(-c2cncc(-c3ccc(N4CCNCC4)cc3)c2C#N)cc(OC)c1OC | 86 |  |  | 6000 | 
 |  |  |  |  |  |  |  |  |  |  |  |  |  |  |  | COc1cc(-c2cncc(-c3ccc(N4CCNCC4)cc3)c2C)cc(OC)c1OC |  |  |  |  | concentration [29]: 9.11 µM
1360 | 2.23 | > 1 | 7.7 | 96 | 39.3 | 62.1 | 1910 | 6 | 2850 | 9.4 | 2.3 | 6 | 4.1 | 31 | 65.8 | COc1cc(-c2cncc(-c3ccc(OC4CCNCC4)cc3)c2C)cc(OC)c1OC | 227 | Non-Toxic | Non-Toxic | 8100 | half-life at 1 µM [27]: > 1 h; Cmax [28]: 4.71 µM
1130 | 0.48 | > 1 | 0.8 | 7 | 100 | 83.6 | 6390 | 7.9 | 1980 | 33.8 | 1 | 29 | 34.5 | 59 | 2.97 | COc1cc(-c2cncc(-c3ccc(N4CCN(S(C)(=O)=O)CC4)cc3)c2C)cc(OC)c1OC | 39 | Non-Toxic | Non-Toxic | > 50000 | half-life at 1 µM [27]: > 1 h; Cmax [28]: 1.43 µM
630 |  |  |  |  |  |  | 2180 |  | 880 |  |  | 15 |  | 32 |  | COc1cc(-c2cncc(-c3ccc(N4CCNCC4)cc3)c2F)cc(OC)c1OC | 42 |  |  |  | 

Compound | IC50 [5] [nM] | Vd [8] [L/kg] | half-life at 1 µM [10] [h] | half-life [11] [h] | bioavailability [12] [%] | remaining at 1 h, 1 µM [13] [%] | remaining at 1 h, 1 µM [15] [%] | IC50 [16] [nM] | clearance [17] [mL/min/kg] | IC50 [18] [nM] | Papp B→A at 2 h, 5 µM [19] [×10⁻⁶ cm/s] | efflux ratio at 2 h, 5 µM [20] | IC50 [21] [nM] | Papp A→B at 2 h, 5 µM [22] [×10⁻⁶ cm/s] | IC50 [23] [nM] | AUC(0-inf) [25] [µM·h] | Ratio IC50 [6] | Activity [9] | Activity [14] | IC50 [26] [nM] | further results
COc1cc(-c2cncc(-c3ccc(C4=CCNCC4)cc3)c2C)cc(OC)c1OC | > 2000 | 1.66 | > 1 | 6.02 | 79 | 73.9 | 68 | 7530 | 3.84 | > 5000 | 3.9 | 1.3 | 5 | 2.9 | 47 | 82.5 |  | Non-Toxic | Non-Toxic | 3400 | Kp at 4 h [24]: 0.43; half-life at 1 µM [27]: > 1 h; Cmax [28]: 6.62 µM
